Patent US8946201B2, “Methods for inhibiting TGF-β” (Saint Louis University, priority 2007, dated 2015)

Columns and labels:
TβR-II = experiment: TGF-β1-induced degradation of TβR-II, Western blot; format: cell-based
Experimental: (E) Cells were treated with several concentrations of cholesterol (a,b) or LDL (c,d) as indicated in the presence and absence of 1% β-CD at 37° C. for 1 hr and further incubated with 50 pM TGF-β for 1 hr. The cell lysates were then subjected to 7.5% SDS-PAGE and Western blot analysis using antibodies to TβR-II and α-actin (a,c). The relative intensities of TβR-II and α-actin on the blot were quantified by densitometry (b,d). The ratio of the relative intensities of TβR-II and α-actin in cells treated without TGF-β1 was taken as the 100% level of TβR-II.
(F, G) Cells were treated with or without 1 μM lovastatin/fluvastatin or nystatin (25 μg/ml)/cholesterol (50 μg/ml) at 37° C. for 16 hr or 1 hr, respectively. The treated cells were directly analyzed by sucrose density gradient ultracentrifugation analysis (F) or further incubated with 50 pM TGF-β at 37° C. for several time periods as indicated (G). Western blot analysis of the sucrose density gradient fractions (F) and of TGF-β1-treated cell lysates (G) was performed using antibody to TβR-II. The relative levels of TβR-II and α-actin were quantified by densitometry. Fractions ⅘ and 7 represent lipid raft/caveolae and non-lipid raft fractions, respectively. […] The quantitative data from three independent analyses is shown (G, bottom). […]
(§1) Cells grown to near confluence on 12-well cluster dishes were treated with cholesterol or LDL in serum-free DMEM (vol.=0.5 ml/well) at 37° C. for 1 hr. […] Treated cells were lysed and cell lysates were analyzed by 7.5% SDS-PAGE and Western blot analysis using anti-Smad2, anti-P-Smad2, anti-caveolin-1, anti-TβR-I (alk5) or anti-TβR-II antibodies as described previously (30). […]
Lipid raft/caveolae-mediated endocytosis of receptor-bound TGF-β results in rapid degradation of TGF-β1 and suppression of TGF-β responsiveness. […] To test this, we analyzed the lipid raft/caveolae and non-lipid raft localization of TβR-I and TβR-II in the plasma membrane of cells treated with or without cholesterol (50 μg/ml) using sucrose density gradient ultracentrifugation analysis. […]

[1] = tested on: Smad2 phosphorylation stimulated by TGF-β1; experiment: TGF-β1-stimulated Smad2 phosphorylation, Western blot, Mv1Lu cells; format: cell-based, mink
Experimental: Cells were treated with increasing concentrations of cholesterol, as indicated (A, B, C), 50 μg protein/ml LDL (D), 5 μg protein/ml VLDL (D) or 50 μg/ml cholesterol (E) at 37° C. for 1 hr and then further incubated with 50 pM TGF-β1 for 30 min. Phosphorylated Smad2 (P-Smad2) and total Smad2 in the cell lysates were analyzed by 7.5% SDS-PAGE and followed by immunoblot analysis using anti-P-Smad2 and anti-Smad2 antibodies. A representative of a total of 3 analyses is shown (top). The quantitative analysis of the immunoblots is shown (bottom). […] Smad2 nuclear translocation was analyzed by indirect immunofluorescent staining using P-Smad2 antibody and rhodamine-labeled 2nd antibody (E). Rhodamine fluorescence represents P-Smad2 staining (a,b,c) whereas the nuclei were stained by DAPI staining (d,e,f).
as §1
It has been reported that TGF-β responsiveness is determined by TGF-β partitioning between lipid raft/caveolae-mediated and clathrin-mediated endocytosis. […]

CC(C)CCC[C@@H](C)[C@H]1CC[C@H]2[C@@H]3CC=C4C[C@@H](O)CC[C@]4(C)[C@H]3CC[C@]12C [cholesterol]
TβR-II degradation, treatment alone (TβR-II; cholesterol 10 μg/ml or LDL 15 μg protein/ml, without TGF-β1): did not induce | enhancement of TGF-β1-induced degradation of TβR-II (TβR-II; cholesterol 10 μg/ml, LDL 15 μg protein/ml, 1 hr, then 50 pM TGF-β 1 hr): 70% | suppression of Smad2 phosphorylation stimulated by TGF-β1 ([1]; 25 μg/ml, 37° C. 1 hr, then 50 pM TGF-β1 0.5 hr, Mv1Lu cells): 55% | effect on Smad2 phosphorylation ([1]; at concentrations of 6 or 10 μg/ml, Mv1Lu, BAEC, NRK cells (FIG. 1)): appreciably suppressed
